Measurements reported in patent publication US20240226106A1, “INHIBITORS OF PLASMA KALLIKREIN” (SHIRE HUMAN GENETIC THERAPIES, INC., priority 2021, published 2024).
Read-outs that look alike come from different tables or passages of the source.

Tests used:
[1] = target: human activated kallikrein enzyme (Homo sapiens, UniProt P03952); experiment: Inhibition of human activated plasma kallikrein, fluorogenic peptide substrate (PFR-AMC), 500 pM enzyme format; type: biochemical; conditions: 500 pM activated kallikrein, 30 min preincubation, 10 min reaction, room temperature, read-out: Primary Dose Response Assay: Average EC50
Experimental: Compounds were evaluated for inhibition of the human activated kallikrein enzyme in two formats of an assay employing a fluorogenic peptide substrate. In one assay format, the concentrations of reagents were as follows: 20 mM Tris pH 7.5, 1 mM EDTA, 150 mM sodium chloride, 0.1% PEG-400, 0.1% Triton X-100, 500 pM activated kallikrein enzyme, […] Pro-Phe-Arg-7-amido-4-methylcoumarin (PFR-AMC) substrate. Prior to reaction initiation with substrate, enzyme and inhibitors were preincubated for 30 min at room temperature. After initiation with substrate, reactions were incubated for 10 min at room temperature and fluorescence emission at 460 nm from 380 nm excitation measured with a microplate reader. In another assay format, the concentrations of reagents were as follows: 20 mM Tris pH 7.5, 1 mM EDTA, 150 mM sodium chloride, 0.1% PEG-400, 0.1% Triton X-100, 5 pM activated kallikrein enzyme, 300 uM PFR-AMC substrate. Prior to reaction initiation with substrate, enzyme and inhibitors were preincubated for 30 min at room temperature. After initiation with substrate, reactions were incubated for 18 hr at room temperature and fluorescence emission at 460 nm from 380 nm excitation measured with a microplate reader.

[2] = target: T1, plasma kallikrein (Homo sapiens, UniProt P03952); experiment: Neat human plasma assay (fluorogenic peptide), contact pathway-activated plasma; type: biochemical; conditions: read-out: Human Plasma Assay: IC90
T1 construct: from tissue; host or cells: sodium citrate collected human plasma
Experimental: To analyze inhibition of plasma kallikrein in an ex vivo setting, the potency of compounds was measure in contact pathway-activated plasma assays. In a fluorogenic peptide substrate assay, test compounds dissolved in DMSO were added to sodium citrate collected human or rat plasma in a 96-well microplate. Alternatively, citrated plasma was collected from rats administered the compounds orally or by IV. 10 nM of human FXIIa (Enzyme Research Laboratories) diluted in PKa buffer (20 mM Tris-HCl, pH 7.5, 150 mM NaCl, 1 mM EDTA, 0.100 PEG-8000, and 0.1% Triton X-100) was added to the plasma, followed by the 100 μM of the profluorescent, synthetic plasma kallikrein substrate PFR-AMC (also diluted in PKa buffer). Final plasma concentration in the reaction was […]. Fluorescence was immediately monitored by excitation/emission wavelengths of 360 nm/480 nm respectively over a period of 5 minutes in a microplate reader. The resulting linear increase in fluorescence emission (reflecting PKa proteolysis of PFR-AMC substrate) was fit to extract a proteolytic rate (fluorescent units over time), and this rate was subsequently plotted against compound inhibitor concentration. Resulting plots were fit to a standard 4-parameter IC50/C90 equation to determine min/max values, IC50/90, and slope. All experimental steps were performed at room temperature.

[3] = citrated human plasma, 10 nM human FXIIa activation, 100 μM PFR-AMC, room temperature

T1 sequence (P03952 391-638 limits assumed): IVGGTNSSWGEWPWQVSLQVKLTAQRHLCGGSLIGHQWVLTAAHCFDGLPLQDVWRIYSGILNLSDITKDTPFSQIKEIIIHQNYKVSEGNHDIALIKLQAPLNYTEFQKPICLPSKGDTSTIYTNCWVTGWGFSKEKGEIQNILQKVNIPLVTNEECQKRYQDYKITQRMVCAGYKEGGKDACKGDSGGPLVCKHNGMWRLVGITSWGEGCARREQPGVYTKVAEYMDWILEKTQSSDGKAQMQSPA
T1 sequence (P03952 20-390 partner limits assumed): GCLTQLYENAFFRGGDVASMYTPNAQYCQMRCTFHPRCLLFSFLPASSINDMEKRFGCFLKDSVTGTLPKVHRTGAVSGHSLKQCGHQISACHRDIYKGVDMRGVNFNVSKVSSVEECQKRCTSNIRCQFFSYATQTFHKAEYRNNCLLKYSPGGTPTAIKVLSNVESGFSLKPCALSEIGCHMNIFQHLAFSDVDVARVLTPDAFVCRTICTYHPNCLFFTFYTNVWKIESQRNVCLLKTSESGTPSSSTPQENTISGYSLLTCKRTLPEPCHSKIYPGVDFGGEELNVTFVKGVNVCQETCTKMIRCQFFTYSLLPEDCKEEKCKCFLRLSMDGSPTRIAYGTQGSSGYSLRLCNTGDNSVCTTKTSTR
Sequence of human activated kallikrein enzyme (P03952 391-638 limits assumed): as the sequence (P03952 391-638 limits assumed) above
Sequence of human activated kallikrein enzyme (P03952 20-390 partner limits assumed): as the sequence (P03952 20-390 partner limits assumed) above

Row | Compound | EC50 [1] | IC90 [2, 3] | IC90 [2]
1 | O=C(Nc1nccc2nn(Cc3cn4nc(C5CC5)ccc4n3)cc12)[C@H]1C[C@@H]1c1cccc(Cl)c1 [Example 35, (1S,2S)-2-(3-chlorophenyl)-N-(2-((6-cyclopropylimidazo[1,2-b]pyridazin-2-yl)methyl)-2H-pyrazolo[4,3-c]pyridin-4-yl)cyclopropane-1-carboxamide] | < 2.5 nM | 500 to 5000 nM | –
2 | O=C(Nc1cc(NCc2cn3nc(C4CC4)ccc3n2)ccn1)[C@H]1C[C@@H]1c1cccc(Cl)c1 [Example 46, (1S,2S)-2-(3-chlorophenyl)-N-(4-(((6-cyclopropylimidazo[1,2-b]pyridazin-2-yl)methyl)amino)pyridin-2-yl)cyclopropane-1-carboxamide] | < 2.5 nM | 5000 to 65000 nM | –
3 | CN1CCN(c2cc(C3CC3)cc3cc(CNc4ccnc(NC(=O)[C@H]5C[C@@H]5c5cccc(Cl)c5)c4)nn23)CC1 [Example 54, (1S,2S)-2-(3-chlorophenyl)-N-(4-(((5-cyclopropyl-7-(4-methylpiperazin-1-yl)pyrazolo[1,5-a]pyridin-2-yl)methyl)amino)pyridin-2-yl)cyclopropane-1-carboxamide] | < 2.5 nM | 500 to 5000 nM | –
4 | Cc1ccnc([C@H]2C[C@@H]2C(=O)Nc2cc(OCc3cn4nc(C5CC5)cc(N5CC(=O)N(C)C5=O)c4n3)cnn2)n1 [Example 97, (1S,2S)—N-(5-((6-cyclopropyl-8-(3-methyl-2,4-dioxoimidazolidin-1-yl)imidazo[1,2-b]pyridazin-2-yl)methoxy)pyridazin-3-yl)-2-(4-methylpyrimidin-2-yl)cyclopropane-1-carboxamide] | < 2.5 nM | < 500 nM | –
5 | CN1CCN(c2cc(C3CC3)cn3nc(CNc4ccnc(NC(=O)[C@H]5C[C@@H]5c5cccc(Cl)c5)c4)nc23)CC1 [Example 45, (1S,2S)-2-(3-chlorophenyl)-N-(4-(((6-cyclopropyl-8-(4-methylpiperazin-1-yl)-[1,2,4]triazolo[1,5-a]pyridin-2-yl)methyl)amino)pyridin-2-yl)cyclopropane-1-carboxamide] | < 2.5 nM | 5000 to 65000 nM | –
6 | Cc1ccnc([C@H]2C[C@@H]2C(=O)Nc2cc(OCc3cc4cc(C5CC5)cc(N5CC(=O)N(C)C5=O)n4n3)cnn2)n1 [Example 100, (1S,2S)—N-(5-((5-cyclopropyl-7-(3-methyl-2,4-dioxoimidazolidin-1-yl)pyrazolo[1,5-a]pyridin-2-yl)methoxy)pyridazin-3-yl)-2-(4-methylpyrimidin-2-yl)cyclopropane-1-carboxamide] | < 2.5 nM | – | < 500 nM
7 | O=C(Nc1cc(NCc2nc3ncc(C4CC4)cn3n2)ccn1)[C@@H]1C[C@]12CCc1ccc(Cl)cc12 (racemic) [Example 41, rac-(1S*,2S*)-6′-chloro-N-(4-(((6-cyclopropyl-[1,2,4]triazolo[1,5-a]pyrimidin-2-yl)methyl)amino)pyridin-2-yl)-2′,3′-dihydrospiro[cyclopropane-1,1′-indene]-2-carboxamide] | < 2.5 nM | 5000 to 65000 nM | –
8 | O=C(Nc1cc(OCc2ccc(Cn3cccn3)cc2)cnn1)[C@H]1C[C@@H]1c1cccnc1Cl (racemic) [Example 5, rac-(1S*,2S*)—N-(5-((4-((1H-pyrazol-1-yl)methyl)benzyl)oxy)pyridazin-3-yl)-2-(2-chloropyridin-3-yl)cyclopropane-1-carboxamide] | > 500 nM | – | –
9 | O=C(Nc1cn(Cc2ccc(Cn3cccn3)cc2)cn1)[C@H]1C[C@@H]1c1cccc(Cl)c1 (racemic) [Example 9, rac-(1S*,2S*)—N-(1-(4-((1H-pyrazol-1-yl)methyl)benzyl)-1H-imidazol-4-yl)-2-(3-chlorophenyl)cyclopropane-1-carboxamide] | > 500 nM | – | –
10 | O=C(Nc1cc(NCc2ccc(Cn3ccccc3=O)cc2)cnn1)[C@H]1C[C@@H]1c1cccc(Cl)c1 (racemic) [Example 14, rac-(1S*,2S*)-2-(3-chlorophenyl)-N-(5-((4-((2-oxopyridin-1 (2H)-yl)methyl)benzyl)amino)pyridazin-3-yl)cyclopropane-1-carboxamide] | < 2.5 nM | – | –
11 | Cc1ccnc([C@H]2C[C@@H]2C(=O)Nc2cc(OCc3cc(F)c4ncc(Cl)cc4c3)cnn2)n1 [Example 92, (1S,2S)—N-(5-((3-chloro-8-fluoroquinolin-6-yl)methoxy)pyridazin-3-yl)-2-(4-methylpyrimidin-2-yl)cyclopropane-1-carboxamide] | 2.5 to 25 nM | – | –
12 | N#Cc1ccc(Cl)cc1[C@H]1C[C@@H]1C(=O)Nc1cc(NCc2nc3ccc(C4CC4)cn3n2)ncn1 (racemic) [Example 24, rac-(1S*,2S*)-2-(5-chloro-2-cyanophenyl)-N-(6-(((6-cyclopropyl-[1,2,4]triazolo[1,5-a]pyridin-2-yl)methyl)amino)pyrimidin-4-yl)cyclopropane-1-carboxamide] | 2.5 to 25 nM | – | –
13 | O=C(Nc1cc(C2(c3ccc(Cn4cc(Cl)ccc4=O)cc3)CC2)cnn1)[C@H]1C[C@@H]1c1cccc(Cl)c1 (racemic) [Example 20, rac-(1S*,2S*)—N-(5-(1-(4-((5-chloro-2-oxopyridin-1 (2H)-yl)methyl)phenyl)cyclopropyl)pyridazin-3-yl)-2-(3-chlorophenyl)cyclopropane-1-carboxamide] | > 500 nM | – | –

Further lines, with some results ahead:

Row | EC50 [1] | IC90 [2, 3] | Compound | IC90 [2]
14 | < 2.5 nM | < 500 nM | Cc1ccnc([C@H]2C[C@@H]2C(=O)Nc2cc(NCc3cn4cc(C5CC5)nc(N5CC(=O)N(C)C5=O)c4n3)ncn2)n1 (racemic) [Example 80, rac-(1S*,2S*)—N-(6-(((6-cyclopropyl-8-(3-methyl-2,4-dioxoimidazolidin-1-yl)imidazo[1,2-a]pyrazin-2-yl)methyl)amino)pyrimidin-4-yl)-2-(4-methylpyrimidin-2-yl)cyclopropane-1-carboxamide] | –
15 | < 2.5 nM | < 500 nM | Cc1ccnc([C@H]2C[C@@H]2C(=O)Nc2ncc(F)c(NCc3cn4cc(C5CC5)nc(N5CC(=O)N(C)C5=O)c4n3)n2)n1 (racemic) [Example 84, rac-(1S*,2S*)—N-(4-(((6-cyclopropyl-8-(3-methyl-2,4-dioxoimidazolidin-1-yl)imidazo[1,2-a]pyrazin-2-yl)methyl)amino)-5-fluoropyrimidin-2-yl)-2-(4-methylpyrimidin-2-yl) cyclopropane-1-carboxamide] | –
16 | < 2.5 nM | 500 to 5000 nM | O=C(Nc1cc(NCc2cc3cc(C4CC4)cc(N4CCOC4=O)n3n2)ncn1)[C@H]1C[C@@H]1c1cccc(Cl)c1 [Example 49, (1S,2S)-2-(3-chlorophenyl)-N-(6-(((5-cyclopropyl-7-(2-oxooxazolidin-3-yl)pyrazolo[1,5-a]pyridin-2-yl)methyl)amino)pyrimidin-4-yl)cyclopropane-1-carboxamide] | –
17 | < 2.5 nM | < 500 nM | Cc1ccnc([C@H]2C[C@@H]2C(=O)Nc2cc(NCc3ccc4ncc(C5CC5)cc4c3)ncn2)n1 [Example 93, (1S,2S)—N-(6-(((3-cyclopropylquinolin-6-yl)methyl)amino)pyrimidin-4-yl)-2-(4-methylpyrimidin-2-yl)cyclopropane-1-carboxamide] | –
18 | > 500 nM | – | Cc1ccnc([C@@H]2C[C@H]2C(=O)Nc2cc(N3C[C@@H](O)C[C@@H]3c3cn4cc(C5CC5)cnc4n3)ncn2)c1 (single isomer, unassigned) [Example 74, (1S*,2S*)—N-(6-((2R,4S)-2-(6-cyclopropylimidazo[1,2-a]pyrimidin-2-yl)-4-hydroxypyrrolidin-1-yl)pyrimidin-4-yl)-2-(4-methylpyridin-2-yl)cyclopropane-1-carboxamide] | –
19 | > 500 nM | – | O=C(Nc1cc(NCc2cn3c(NC4CC4)nccc3n2)ncn1)[C@H]1C[C@@H]1c1cccc(Cl)c1 [Example 50, (1S,2S)-2-(3-chlorophenyl)-N-(6-(((5-(cyclopropylamino)imidazo[1,2-c]pyrimidin-2-yl)methyl)amino)pyrimidin-4-yl)cyclopropane-1-carboxamide] | –
20 | 2.5 to 25 nM | – | CCOC(=O)CCc1cc(C2CC2)cc2cc(CNc3cc(NC(=O)[C@H]4C[C@@H]4c4cccc(Cl)c4)ncn3)nn12 [Example 47, ethyl 3-(2-(((6-((1S,2S)-2-(3-chlorophenyl)cyclopropane-1-carboxamido)pyrimidin-4-yl)amino)methyl)-5-cyclopropylpyrazolo[1,5-a]pyridin-7-yl)propanoate] | –
